Assay [1] concerns Staphylococcus aureus ATCC 10537 (MRSA). The assay is described as follows: MIC, liquid microdilution, MRSA. Conditions: 18 h, 37 °C. The format is cell-based. (In general: Broth dilution looks for growth in wells or tubes with falling amounts of substance.)
In another assay the test system is Bacillus sp. ATCC 27859. The experiment in a line: MIC, liquid microdilution, Bacillus. The assay is classed as cell-based. The settings on record: 18 h, 37 °C.
The subject of assay [2] is Enterococcus faecium ATCC 12952 (VRE). The experiment in a line: MIC, liquid microdilution, VRE. The assay is classed as cell-based. The settings on record: 18 h, 37 °C.
The subject of assay [3] is in vitro protein synthesis (E. coli S30 Extract System). The experiment in a line: In vitro transcription-translation coupled assay. The format is biochemical. The settings on record: read-out: IC50, in vitro translation inhibition, pBESTLuc template, 37 °C, 1 h, triplicate.

Converted amounts (≈) assume the structure as drawn.

The IC50 is the concentration that gives 50% inhibition.

For the compound `C=C(NC(=O)C(=C)NC(=O)c1csc(C2=N[C@@H]3c4csc(n4)[C@H]4NC(=O)c5csc(n5)[C@H]([C@](C)(O)[C@@H](C)O)NC(=O)[C@H]5CSC(=N5)/C(=C/C)NC(=O)[C@H]([C@@H](C)O)NC(=O)c5csc(n5)[C@]3(CC2)NC(=O)[C@H](C)NC(=O)C(=C)NC(=O)[C@H](C)NC(=O)[C@H]([C@@H](C)CC)N[C@@H]2C=Cc3c([C@H](C)O)cc(nc3[C@H]2O)C(=O)O[C@@H]4C)n1)C(N)=O` [Thiostrepton A, thiostrepton A], in assay [1], the “MIC MRSA” value worked out at 0.012 µg/mL (≈ 7.21 nM). Also, the “MIC Bacillus” value with Bacillus sp. ATCC 27859 came out at 0.025 µg/mL (≈ 15 nM). Moreover, in assay [2], the “MIC VRE” value amounted to 0.012 µg/mL (≈ 7.21 nM). Moreover, in assay [3], the IC50 was 0.63 ± 0.01 µM.

The values are drawn from paper PMC4847728 (ACS chemical biology, 2015).
